Experimental data taken from patent US20090233966A1, “Analogues of the Azinomycins as Anti-Tumour Agents and as Prodrugs” (School of Pharmacy, University of London, priority 2005, published 2009).
Entries after “also recorded” stand apart in the source; their conditions may differ. Like-named read-outs stand apart in the source and are kept apart here.

Legend:
Format in all cases: cell-based, human
[1] = system: NCl 60 cell panel; assay: NCI 60 cell line panel antitumour activity (whole panel); settings: for GI50: MGMID line of the panel, read-out: anti-tumour activity GI50, MGMID; for antitumour activity in the NCl 60 cell line panel (in words): wide range of human tumour cell lines
Excerpt: (§1) Examples 6 and 7 make use of the NCl 60 cell panel. This is an in vitro cell line screening project providing direct support to the National Cancer Institute's USA Developmental Therapeutic Programme for anti cancer discovery. The methodolgy for the cell line's operation is described by Boyd et al in Drug Development Research 1995, 34, 91-109.

[2] = system: HT29; assay: NCI 60 cell panel growth inhibition; settings: read-out: anti-tumour activity GI50
Excerpt: as §1

[3] = system: TK10; assay: NCI 60 cell panel growth inhibition; settings: read-out: anti-tumour activity GI50
Excerpt: as §1

[4] = system: DU-145; assay: NCI 60 cell panel growth inhibition; settings: PROST, read-out: anti-tumour activity GI50
Excerpt: as §1

[5] = system: OVCAR-5; assay: NCI 60 cell panel growth inhibition; settings: OVAR, read-out: anti-tumour activity GI50
Excerpt: as §1

[6] = system: RPMI-8226; assay: NCI 60 cell panel growth inhibition; settings: Leukemia, read-out: anti-tumour activity GI50
Excerpt: as §1

[7] = system: PC-3; assay: NCI 60 cell panel growth inhibition; settings: PROST, read-out: anti-tumour activity GI50
Excerpt: as §1

[8] = system: SKOV-3; assay: NCI 60 cell panel growth inhibition; settings: read-out: anti-tumour activity GI50
Excerpt: as §1

[9] = system: RXF 393; assay: NCI 60 cell panel growth inhibition; settings: RENAL, read-out: anti-tumour activity GI50
Excerpt: as §1

[10] = system: UCC-62; assay: NCI 60 cell panel growth inhibition; settings: MELAN, read-out: anti-tumour activity GI50
Excerpt: as §1

[11] = system: HS 578T; assay: NCI 60 cell panel growth inhibition; settings: BREAST, read-out: anti-tumour activity GI50
Excerpt: as §1

[12] = system: OVCAR-3; assay: NCI 60 cell panel growth inhibition; settings: OVAR, read-out: anti-tumour activity GI50
Excerpt: as §1

[13] = system: HCC2998; assay: NCI 60 cell panel growth inhibition; settings: read-out: anti-tumour activity GI50
Excerpt: as §1

[14] = system: HOP-62; assay: NCI 60 cell panel growth inhibition; settings: NSCLC, read-out: anti-tumour activity GI50
Excerpt: as §1

[15] = system: NCI-H522; assay: NCI 60 cell panel growth inhibition; settings: NSCLC, read-out: anti-tumour activity GI50
Excerpt: as §1

[16] = system: SN12C; assay: NCI 60 cell panel growth inhibition; settings: RENAL, read-out: anti-tumour activity GI50
Excerpt: as §1

[17] = system: K562; assay: NCI 60 cell panel growth inhibition; settings: Leukemia, read-out: anti-tumour activity GI50
Excerpt: as §1

[18] = system: A498; assay: NCI 60 cell panel growth inhibition; settings: RENAL, read-out: anti-tumour activity GI50
Excerpt: as §1

[19] = system: 435; assay: NCI 60 cell panel growth inhibition; settings: BREAST, read-out: anti-tumour activity GI50
Excerpt: as §1

[20] = system: BT-549; assay: NCI 60 cell panel growth inhibition; settings: BREAST, read-out: anti-tumour activity GI50
Excerpt: as §1

[21] = system: HL-60(TB); assay: NCI 60 cell panel growth inhibition; settings: Leukemia, read-out: anti-tumour activity GI50
Excerpt: as §1

[22] = system: A549/ATCC; assay: NCI 60 cell panel growth inhibition; settings: NSCLC, read-out: anti-tumour activity GI50
Excerpt: as §1

[23] = system: SK-MEL-5; assay: NCI 60 cell panel growth inhibition; settings: MELAN, read-out: anti-tumour activity GI50
Excerpt: as §1

[24] = system: LOX IMVI; assay: NCI 60 cell panel growth inhibition; settings: MELAN, read-out: anti-tumour activity GI50
Excerpt: as §1

[25] = system: HOP-92; assay: NCI 60 cell panel growth inhibition; settings: NSCLC, read-out: anti-tumour activity GI50
Excerpt: as §1

[26] = system: MDA-MB-231/ATCC; assay: NCI 60 cell panel growth inhibition; settings: BREAST, read-out: anti-tumour activity GI50
Excerpt: as §1

[27] = system: OVCAR-4; assay: NCI 60 cell panel growth inhibition; settings: OVAR, read-out: anti-tumour activity GI50
Excerpt: as §1

[28] = system: MCF7; assay: NCI 60 cell panel growth inhibition; settings: BREAST, read-out: anti-tumour activity GI50
Excerpt: as §1

[29] = system: CAKI-1; assay: NCI 60 cell panel growth inhibition; settings: RENAL, read-out: anti-tumour activity GI50
Excerpt: as §1

[30] = system: NCI/ADRRES; assay: NCI 60 cell panel growth inhibition; settings: BREAST, read-out: anti-tumour activity GI50
Excerpt: as §1

[31] = system: SK-MEL-28; assay: NCI 60 cell panel growth inhibition; settings: MELAN, read-out: anti-tumour activity GI50
Excerpt: as §1

[32] = system: SF-295; assay: NCI 60 cell panel growth inhibition; settings: CNS, read-out: anti-tumour activity GI50
Excerpt: as §1

[33] = system: SF-539; assay: NCI 60 cell panel growth inhibition; settings: CNS, read-out: anti-tumour activity GI50
Excerpt: as §1

[34] = system: KM12; assay: NCI 60 cell panel growth inhibition; settings: COLON, read-out: anti-tumour activity GI50
Excerpt: as §1

[35] = system: OVCAR-8; assay: NCI 60 cell panel growth inhibition; settings: OVAR, read-out: anti-tumour activity GI50
Excerpt: as §1

[36] = system: SK-MEL-2; assay: NCI 60 cell panel growth inhibition; settings: MELAN, read-out: anti-tumour activity GI50
Excerpt: as §1

[37] = system: SW-620; assay: NCI 60 cell panel growth inhibition; settings: COLON, read-out: anti-tumour activity GI50
Excerpt: as §1

[38] = system: EKVX; assay: NCI 60 cell panel growth inhibition; settings: NSCLC, read-out: anti-tumour activity GI50
Excerpt: as §1

[39] = system: SR; assay: NCI 60 cell panel growth inhibition; settings: Leukemia, read-out: anti-tumour activity GI50
Excerpt: as §1

[40] = system: MOLT-4; assay: NCI 60 cell panel growth inhibition; settings: Leukemia, read-out: anti-tumour activity GI50
Excerpt: as §1

[41] = system: MALME-3M; assay: NCI 60 cell panel growth inhibition; settings: MELAN, read-out: anti-tumour activity GI50
Excerpt: as §1

[42] = system: NCI-H322M; assay: NCI 60 cell panel growth inhibition; settings: NSCLC, read-out: anti-tumour activity GI50
Excerpt: as §1

[43] = system: U251; assay: NCI 60 cell panel growth inhibition; settings: read-out: anti-tumour activity GI50
Excerpt: as §1

[44] = system: CCRF-CEM; assay: NCI 60 cell panel growth inhibition; settings: Leukemia, read-out: anti-tumour activity GI50
Excerpt: as §1

[45] = system: NCI-H460; assay: NCI 60 cell panel growth inhibition; settings: NSCLC, read-out: anti-tumour activity GI50
Excerpt: as §1

COc1cc(C(=O)OC(C(=O)NCCN2CCCC(Cl)C2)C2(C)CO2)c2cccc(C)c2c1 (centres unmarked) [Compound 20]
GI50 [1]: 12.3 µM | antitumour activity in the NCl 60 cell line panel (in words) [1]: low micromolar to high nanomolar activity; also recorded: significant cytotoxicity in the low micromolar range | GI50 ([2]; COLON): 11 µM | GI50 ([3]; RENAL): 23.4 µM | GI50 [4]: 4.49 µM | GI50 [5]: 16.1 µM | GI50 [6]: 4.18 µM | GI50 [7]: 11.2 µM | GI50 ([8]; OVAR): 19.7 µM | GI50 [9]: 17.5 µM | GI50 [10]: 14.7 µM | GI50 [11]: 17.5 µM | GI50 [12]: 18.6 µM | GI50 ([13]; COLON): 8.25 µM | GI50 [14]: 100 µM | GI50 [15]: 7.77 µM | GI50 [16]: 6.76 µM | GI50 [17]: 8.33 µM | GI50 [18]: 17.7 µM | GI50 [19]: 14.3 µM | GI50 [20]: 12.5 µM | GI50 [21]: 6.98 µM | GI50 [22]: 31.1 µM | GI50 [23]: 1.56 µM | GI50 [24]: 3.62 µM | GI50 [25]: 13.8 µM | GI50 [26]: 14 µM | GI50 [27]: 21.5 µM | GI50 [28]: 14.7 µM | GI50 [29]: 10.3 µM | GI50 [30]: 11.1 µM | GI50 [31]: 11.6 µM | GI50 [32]: 13.1 µM | GI50 [33]: 6.27 µM | GI50 [34]: 14.5 µM | GI50 [35]: 44.5 µM | GI50 [36]: 18.6 µM | GI50 [37]: 5.26 µM | GI50 [38]: 17.5 µM | GI50 [39]: 2.02 µM | GI50 [40]: 3 µM | GI50 [41]: 14.8 µM | GI50 [42]: 17.9 µM | GI50 ([43]; CNS): 7.82 µM | GI50 [44]: 3.26 µM | GI50 [45]: 13 µM

C=C(C)[C@H](OC(=O)c1cc(OC)cc2c(C)cccc12)C(=O)NCCN1CCCC(Cl)C1 (some centres unmarked) [Compound 21]
GI50 ([1]; Homo sapiens, 60 cell): 5.12 µM | antitumour activity in the NCl 60 cell line panel (in words) [1]: significant cytotoxicity in the low micromolar range | GI50 ([2]; Homo sapiens, HT-29, COLON): 7.26 µM | GI50 ([3]; Homo sapiens, TK-10, RENAL): 12.1 µM | GI50 ([4]; Homo sapiens): 5.15 µM | GI50 ([5]; Homo sapiens): 11.1 µM | GI50 ([6]; Homo sapiens): 3.43 µM | GI50 ([7]; Homo sapiens): 7.96 µM | GI50 ([8]; Homo sapiens, SK-OV-3, OVAR): 17.2 µM | GI50 ([9]; Homo sapiens): 19.1 µM | GI50 ([10]; Homo sapiens, 60 cell): 4.41 µM | GI50 ([11]; Homo sapiens): 3.69 µM | GI50 ([12]; Homo sapiens): 10.2 µM | GI50 ([13]; Homo sapiens, HCC 2998, COLON): 4.27 µM | GI50 ([14]; Homo sapiens): 3.45 µM | GI50 ([15]; Homo sapiens): 5.1 µM | GI50 ([16]; Homo sapiens): 3.76 µM | GI50 ([17]; Homo sapiens): 5.16 µM | GI50 ([18]; Homo sapiens): 0.19 µM | GI50 ([19]; Homo sapiens, 60 cell): 7.62 µM | GI50 ([20]; Homo sapiens): 4.55 µM | GI50 ([21]; Homo sapiens): 12.1 µM | GI50 ([22]; Homo sapiens): 8.26 µM | GI50 ([23]; Homo sapiens): 1.99 µM | GI50 ([24]; Homo sapiens): 2.84 µM | GI50 ([25]; Homo sapiens): 4.12 µM | GI50 ([26]; Homo sapiens): 11 µM | GI50 ([27]; Homo sapiens): 20.9 µM | GI50 ([28]; Homo sapiens): 4.62 µM | GI50 ([29]; Homo sapiens): 5.66 µM | GI50 ([30]; Homo sapiens, NCI/ADR-RES): 12.8 µM | GI50 ([31]; Homo sapiens): 8.48 µM | GI50 ([32]; Homo sapiens): 4.35 µM | GI50 ([33]; Homo sapiens): 0.45 µM | GI50 ([34]; Homo sapiens): 9.3 µM | GI50 ([35]; Homo sapiens): 32.9 µM | GI50 ([36]; Homo sapiens): 7.81 µM | GI50 ([37]; Homo sapiens): 2.76 µM | GI50 ([38]; Homo sapiens): 11.4 µM | GI50 ([39]; Homo sapiens): 2.34 µM | GI50 ([40]; Homo sapiens): 3.3 µM | GI50 ([41]; Homo sapiens): 7.51 µM | GI50 ([42]; Homo sapiens): 8.07 µM | GI50 ([43]; Homo sapiens, U-251, CNS): 2.63 µM | GI50 ([44]; Homo sapiens): 3.24 µM | GI50 ([45]; Homo sapiens): 6.26 µM
